The target of this assay is ERK2 (Homo sapiens, UniProt P28482). The experiment in a line: ERK2 inhibition assay (spectrophotometric coupled-enzyme assay). In kind it is biochemical. To be noted: activated ERK2 10 nM, 65 μM ATP, 200 μM erktide peptide, 30° C., pH 7.5. As for the experimental part: Compounds were assayed for the inhibition of ERK2 by a spectrophotometric coupled-enzyme assay (Fox et al (1998) Protein Sci 7, 2249). In this assay, a fixed concentration of activated ERK2 (10 nM) was incubated with various concentrations of the compound in DMSO (2.5%) for 10 min. at 30° C. in 0.1 M HEPES buffer, pH 7.5, containing 10 mM MgCl2, 2.5 mM phosphoenolpyruvate, 200 μM NADH, 150 μg/mL pyruvate kinase, 50 μg/mL lactate dehydrogenase, and 200 μM erktide peptide. The reaction was initiated by the addition of 65 μM ATP. The rate of decrease of absorbance at 340 nm was monitored. The Ki and IC50 were evaluated from the rate data as a function of inhibitor concentration.

Among the data in patent US7304061B2, “Heterocyclic inhibitors of ERK2 and uses thereof” (Vertex Pharmaceuticals Incorporated, priority 2002, dated 2007) are Ki values, retold here.

ERK2, sequence (P28482 whole entry, species assumed): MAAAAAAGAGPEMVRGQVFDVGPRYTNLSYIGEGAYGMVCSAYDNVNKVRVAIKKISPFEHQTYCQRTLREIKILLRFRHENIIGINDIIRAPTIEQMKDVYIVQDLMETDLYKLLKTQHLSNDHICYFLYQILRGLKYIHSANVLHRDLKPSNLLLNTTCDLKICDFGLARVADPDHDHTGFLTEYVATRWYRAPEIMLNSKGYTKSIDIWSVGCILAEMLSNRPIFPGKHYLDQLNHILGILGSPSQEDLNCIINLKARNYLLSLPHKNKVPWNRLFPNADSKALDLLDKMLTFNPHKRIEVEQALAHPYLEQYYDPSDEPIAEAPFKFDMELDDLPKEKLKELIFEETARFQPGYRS

For the compound `Cc1cnc(-c2ccccc2)nc1-c1c[nH]c(C(=O)N[C@H](CO)c2ccccc2)c1` [Compound I-24, 4-(5-Methyl-2-phenyl-pyrimidin-4-yl)-1H-pyrrole-2 carboxylic acid (2-hydroxy-1-(S)-phenyl-ethyl)-amide], the Ki was less than 100 nM.

Turning to `CCOc1ncc(C)c(-c2c[nH]c(C(=O)N[C@H](CO)c3ccccc3)c2)n1` [Compound I-22, 4-(5-methyl-2-ethoxy-pyrimidin-4-yl)-1H-pyrrole-2 carboxylic acid (2-hydroxy-1-(S)-phenyl-ethyl)-amide], the Ki is less than 100 nM.
